Results as given in paper PMC7667655, “Targeted Covalent Inhibition of Plasmodium FK506 Binding Protein 35” (ACS Medicinal Chemistry Letters, 2020).
Values after ≈ are worked out from the molar mass of the structure shown. Read-outs that look alike come from different tables or passages of the source.

Experiments:
[1] = target: T1, FBD35 (PfFKBP35 binding domain) (Plasmodium falciparum, UniProt Q8I4V8); test: Differential scanning calorimetry, FBD35; conditions: read-out: FBD35 ΔTM
T1 construct: FKBP35 Q5 -A128; 6His-SUMO (N, cleaved yes); made in house; host or cells: E. coli BL21 DE3
T1 sequence (Q8I4V8 5-128): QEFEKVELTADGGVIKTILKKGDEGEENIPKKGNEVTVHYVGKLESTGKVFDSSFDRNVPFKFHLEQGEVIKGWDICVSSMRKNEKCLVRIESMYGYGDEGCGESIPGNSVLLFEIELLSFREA

FKBP12 [2] = target: T2, FKBP12 (Homo sapiens, UniProt P62942); test: Fluorescence polarization competition, FKBP12; format: binding
T2 construct: 6His-SUMO (N, cleaved yes); made in house; host or cells: E. coli (identical protocol to FBD35, BL21 DE3)
T2 sequence (P62942 whole entry): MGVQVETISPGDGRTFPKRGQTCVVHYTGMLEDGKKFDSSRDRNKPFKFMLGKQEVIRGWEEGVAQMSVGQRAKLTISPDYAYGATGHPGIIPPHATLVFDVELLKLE

[3] = target: T1, FBD35 (PfFKBP35 binding domain); test: Fluorescence polarization competition, FBD35
FKBP12 [4] = target: T2, FKBP12; test: Differential scanning calorimetry, FKBP12; format: binding; conditions: compound 40 µM
PBS solubility = conditions: pH 7.4
[5] = target: T3, nLuc-tagged full length PfFKBP35 (Plasmodium falciparum, UniProt Q8I4V8); test: NanoBRET cellular target engagement, nLuc-FKBP35; format: cell-based
T3 construct: nanoluciferase-tagged (nLuc) full length PfFKBP35 or nLuc-tagged FKBP12; expressed in transfected cells
T3 sequence (Q8I4V8 whole entry): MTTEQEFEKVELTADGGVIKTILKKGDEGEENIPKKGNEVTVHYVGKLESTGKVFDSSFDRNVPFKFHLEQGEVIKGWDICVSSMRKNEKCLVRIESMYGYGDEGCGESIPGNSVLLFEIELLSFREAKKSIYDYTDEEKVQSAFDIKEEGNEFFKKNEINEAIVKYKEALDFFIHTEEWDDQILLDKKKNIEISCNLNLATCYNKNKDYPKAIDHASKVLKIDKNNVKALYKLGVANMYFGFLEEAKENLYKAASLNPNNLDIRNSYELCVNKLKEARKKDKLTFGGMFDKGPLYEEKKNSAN

nLuc-tagged FKBP12 = target: T4, nLuc-tagged FKBP12 (Homo sapiens, UniProt P62942); test: NanoBRET cellular target engagement, nLuc-FKBP12; format: cell-based
T4 construct: full length Plasmodium falciparum FKBP35 and human FKBP12 DNA were; expressed in transfected cells
T4 sequence (P62942 whole entry): as the sequence (P62942 whole entry) above

FKBP35 = target: T5, FKBP35 (Plasmodium falciparum, UniProt Q8I4V8); test: Time course of covalent modification by LC-MS; format: biochemical
T5 construct: FKBP35 Q5 -A128; 6His-SUMO (N, cleaved yes); made in house; host or cells: E. coli BL21 DE3
T5 sequence (Q8I4V8 5-128): as the sequence (Q8I4V8 5-128) above
Text: RT=5.2). B. Overlay of mass determinations from LC traces in (A). FBD35 only (black, m/z = […]
chromatogram corresponding to Figure 4c detecting the CAM -peptide […] at […]
m/z 855.8668. D. Mass spec chromatogram corresponding to Figure 4d detecting the CAM - […]
peptide […] at m/z 855.8670. E. Mass spec chromatogram corresponding to Figure 4e which was unable to detect the mass of the 1c-inclusion peptide. F. Mass spec chromatogram corresponding to Figure 4f detecting the 1c-inclusion peptide […]
Figure S2. Time course of covalent modification. In order to compare rates of covalent modification, compounds 1a-c, 2a, and 2c were incubated with FKBP35 in a 5:1 ratio (2250 nM inhibitor : 450 nM FKBP35) and FKBP35 consumption or modification determined by LC -MS. A.
The concentration of residual FKBP35 as a function of time. Data was fit to an exponential “one phase decay” model which was used to calculate the rate (K) and half -life (t1/2) of the reaction.
The loss of FKBP35 in the DMSO and 1b controls is likely due to adsorption onto the vial. B.
Concentration of covalent adduct as a function of time. Data was fit to an “exponential plateau” regression model, which was used to calculate the rate of formation (K’). Compound 1b, which […]
C. Tabulated rates calculated from the regressions in A and B. The rates of FKBP35 consumption correlate strongly with the rates of […]
(also on this page, place not known: -inclusion 1c 0 20 40 60 0 200 400 600 Time (hours) FKBP35 (nM) Consumption of FKBP35 1a 1b 1c 2a 2c DMSO 0 20 40 60 0 200 400 600 Time (hours) Covalent Adduct (nM) Formation of Covalent Adduct 1a 1b 1c 2a 2c A B) […]
(1 picture or pasted object on this page, not shown here)
Experiments were performed using 0.4 mg/mL concentration of wild -type or mutant protein (6 - 9 uM), with and without synthes ized compounds at 40 µM and 2% DMSO (V/V). The respective reference scans were run under identical DSC conditions and subtracted from each sample scan.
The program was run in a continuous acquisition mode from 25°C to 90°C at a rate of 120C/h The heat capacity curves and midpoint temperature (Tm) were analyzed using Origin 7.0 software.
Fluorescence Polarization
The fluorescent tracer SLFb-2PEG-TAMRA was diluted in DMSO to 100 nM (100x stock concentration). FKBP proteins were diluted in assay buffer (150 mM NaCl, 20 mM HEPES pH 7.5, 0.002% Triton X -100) to the indicated concentration. 100x DMSO tracer stock was added to the protein buffer solution to a 1X final concentration and 20 µL of the mixture was aliquoted into each well of a black 384 -well assay plate (No. 3820, Corning Life Sciences). The plate was briefly centrifuged to remove bubbles. Using a d300e digital dispenser (Tecan), competitive ligands (10 mM stock in DMSO) were aliquoted in triplicate in an 8 -point 3x dilution series (30 µM to 13.7 nM final concentra tion) and normalized to 2% total DMSO concentration. Following incubation at room temperature (RT) for one hour, fluorescence polarization was measured using an EnVision Multimode Plate Reader (PerkinElmer) with the TAMRA Dual -FP mirror and filter kit. […]
analyzed in GraphPad Prism 8 by fitting the data to the “One Site – Fit Ki” model to obtain the […]
Time Course Analysis of Covalent Inhibition
The following analy sis was performed as described on two different days, yielding similar results.
One replicate is shown for clarity. In 1.5 mL snap -top tubes, ligands 1a, 1b, 1c, 2a, and 2c were each diluted to 450 μM in DMSO to produce 200x stock solutions. In a separate 1.5 mL snap-top tube, isolated FKBP35 protein was diluted to 90 μM in the reaction buffer (150 mM NaCl, 20 mM HEPES pH = 7.5) to produce a 200x stock solution. In 2 mL glass mass spec vials, 5 μL of each 200x ligand solution was diluted in 990 μL reaction buffer. Immediately prior to injection of each t=0 time point, 5 μL of the 200x protein solution was added to the mass spec vial and mixed. Samples were analyzed using the Waters BioAccord LC-ToF (composed of an ACQUITY I -Class UPLC and […]

[6] = tested on: NF54 P. falciparum parasites; test: P. falciparum strain NF54 growth-inhibition assay; format: cell-based; conditions: Plasmodium falciparum; luciferase reporter NF54 line, 72 h
Experimental: Figure 6 P. falciparum strain NF54 growth-inhibition assay. […] Proliferation was measured by luminescence after a complete life-cycle and normalized to DMSO (100%) and chloroquine (100 nM, 0%). (B) Structural differences between synthetic ligands and compound IC50s (μM).
Substrate and Extracellular NanoLuc® Inhibitor (Promega, cat. N2160) were diluted at 1:166 and 1:500, respectively, in Opti -MEM I Reduced Serum Media. 25 µL of this solution was added to each well and plate was read immediately using an EnVision Multimode Plate Reader (PerkinElmer). The BRET ratio was calculated using the following formula:
BRET ratio = acceptorsample – acceptorno tracer control donorsample donorno tracer control
NanoBRET Target Engagement Assay (384-well)
HEK293T cells stably expressing either nLuc-FKBP12 or nLuc-FKBP35 were plated at 0.2×10^6 cells/mL in white, clear -bottom 384-well plates (Sigma Aldrich) in Opti -MEM I Reduced Serum Media (ThermoFisher Scientific) using a Mutidrop Combi Reagent Dispenser (ThermoFisher Scientific). Cells were incubated overnight at 37 °C, 5% CO 2. Using a Tecan D300e, the Rap-Gly-BDP tracer was added to cells to 1 µM. Plates were shaken at 700 RPM on an orbital plate shaker and incubated at 37 °C, 5% CO 2 for 10 minutes. Test compounds were added at the indicated concentrations using a Tecan D300e. Plates were shaken at 700 RPM on an orbital plate shaker and incubated at 37 °C, 5% CO 2 for 2 hours. NanoBRET Nano -Glo Substrate and Extracellular NanoLuc® Inhibitor (Promega, cat. N2160) were diluted at 1:166 and 1:500, respectively, in Opti-MEM I Reduced Serum Media. 10 µL of this solution was added to each well and plate was read immediately using an EnVision Multimode Plate Reader (PerkinElmer). The BRET ratio was calculated using the above formula.
Parasite Culture and Inhibition
NF54 P. falciparum parasites constitutively expressing Renilla luciferase (RLuc) and Blasticidin-S deaminase under the PfHsp86 5’ and PfHRP2 3‘ regulatory sequences integrated in the cg6 chromosomal locus 4 were maintained continuous ly in media consisting of human erythrocytes at 2% haematocrit (O+) resuspended in RPMI 1640 (Gibco® 31800022) supplemented with 5% Albumax (Gibco® 11021045; complete medium) and 2.5 µg/mL of Blasticidin (RPI Corp B12150-0.1) in a gas mixture consisting of 5% CO2, 1% O2, and 94% N2 at 37 °C (Trager and Jensen 2005).
Parasitemia was determined every 48 h through microscopic examination of thin blood smears fixed in methanol, stained with 10% Giemsa solution, and sub-cultured to 0.5-1% parasitaemia.
Compound susceptibility assays
In 96-well round-bottom plates, sorbitol -synchronized cultures of ring-stage NF54 P. falciparum parasites were established in triplicate and treated with varying concentrations of the inhibitors (25-0.0038 μM) serially diluted in complete medium. Parasite proliferation rates were analyzed after 72 h using the Renilla-Glo Luciferase Assay, and luminescence was measured using the GloMax® Discover Microplate Reader. EC 50 values were obtained from corrected dose-response curves using GraphPad Prism (version 5; GraphPad Software). Data represent the mean % luminescence relative to 5% DMSO-treated (vehicle, 100% growth) and 100 nM chloroquine-treated (no growth) controls.
In black, clear-bottom 96-well plates (No. 3904 Corning Life Sciences), HEK293T cells were plated at 2x10^5 cells/mL in DMEM high glucose, pyruvate media (ThermoFisher Scientific, cat. 11995073) supplemented with 10% FBS and 1% pen -strep (100 μL final volume). Cells were incubated overnight at 37°C, 5% CO2. Using a Tecan D300e digital dispenser, cells were dosed in triplicate […]
concentration, 100 mM stock in DMSO) and Carfilzomib (10 µM to 4.6 nM final concentration, 10 mM stock in DMSO) normalizing DMSO to 0.25%. Cells were then incubated at 37 °C, 5% CO2 for 72 hours. Following incubation, cells were treated with 70 µL CellTiter-Glo® Luminescent Cell […]

[7] = read-out: FBD35 IC50, fluorescence polarization, competitive inhibition model, * incomplete displacement of fluorescent probe
[8] = differential scanning calorimetry, compound 40 µM
[9] = fluorescence polarization, competitive inhibition model, read-out: FKBP12 IC50

Row | SMILES | ΔTm at 40 µM [1] | IC50 (FKBP12 [2]) | IC50 [3] | ΔTm at 40 µM (FKBP12 [4]) | solubility (PBS solubility) | IC50 (FKBP12 [2]; [9]) | further results
1 | C=CC(=O)Nc1ccc([C@@H](CCc2ccc(OC)c(OC)c2)OC(=O)[C@@H]2CCCCN2C(=O)C(=O)C(C)(C)CC)cc1 [1d] | 2.3 °C | 100 nM | 85 nM | 6 °C |  |  | 
2 | C=CC(=O)Nc1cccc([C@@H](CCc2ccc(OC)c(OC)c2)OC(=O)[C@@H]2CCCCN2C(=O)C(=O)c2cc(OC)c(OC)c(OC)c2)c1 [1e] | 1.5 °C | 326 nM |  | 4.9 °C | 3.1 µM (≈ 2.09 µg/mL) |  | IC50 [3, 7]: > 30000 nM
3 | C=CC(=O)Nc1ccccc1[C@@H](CCc1ccc(OC)c(OC)c1)OC(=O)[C@@H]1CCCCN1C(=O)C(=O)c1cc(OC)c(OC)c(OC)c1 [1f] |  |  |  | 1.4 °C | 23 µM (≈ 15.5 µg/mL) | 3270 nM | ΔTm at 40 µM [1, 8]: -1.3 °C; IC50 [3, 7]: > 30000 nM
4 | C=CC(=O)NCC(C)(C)C(=O)C(=O)N1CCCC[C@H]1C(=O)O[C@H](CCc1ccc(OC)c(OC)c1)c1ccccc1 [2a] | 15.2 °C | 23 nM | 104 nM | 8.8 °C |  |  | IC50 [5]: 1350 nM; IC50 (nLuc-tagged FKBP12): 501 nM; K, rate of FKBP35 consumption (FKBP35; 2250 nM inhibitor : 450 nM FKBP35, 23 °C, one phase decay fit): 0.05916 h⁻¹; K’, rate of covalent adduct formation (FKBP35; 2250 nM inhibitor : 450 nM FKBP35, exponential plateau fit): 0.04354 h⁻¹
5 | CCC(=O)NCC(C)(C)C(=O)C(=O)N1CCCC[C@H]1C(=O)O[C@H](CCc1ccc(OC)c(OC)c1)c1ccccc1 [2b] | 4.3 °C | 40 nM | 92 nM | 7.7 °C |  |  | IC50 [5]: 1880 nM; IC50 (nLuc-tagged FKBP12): 416 nM
6 | C=CC(=O)NCCCC(=O)N1CCCC[C@H]1C(=O)O[C@H](CCc1ccc(OC)c(OC)c1)c1ccccc1 [2e] | 13.8 °C | 3250 nM | 2640 nM | 7.9 °C |  |  | 
7 | C=CC(=O)Nc1ccccc1C(=O)C(=O)N1CCCC[C@H]1C(=O)O[C@H](CCc1ccc(OC)c(OC)c1)c1ccccc1 [2f] |  |  |  | 0.2 °C |  | > 30000 nM | ΔTm at 40 µM [1, 8]: 0.4 °C
8 | C=CC(=O)Nc1cc(OC)ccc1C(=O)C(=O)N1CCCC[C@H]1C(=O)O[C@H](CCc1ccc(OC)c(OC)c1)c1ccccc1 [2g] |  |  |  | 0.1 °C |  | > 30000 nM | ΔTm at 40 µM [1, 8]: 0 °C
9 | C=CC(=O)OCC(C)(C)C(=O)C(=O)N1CCCC[C@H]1C(=O)O[C@H](CCc1ccc(OC)c(OC)c1)c1cccc(OCC(=O)O)c1 [2h] | 16.3 °C | 38 nM | 137 nM | 6.2 °C | 70 µM (≈ 44.8 µg/mL) |  | 
10 | CCC(C)(C)C(=O)C(=O)N1CCCC[C@H]1C(=O)O[C@H](CCc1ccc(OC)c(OC)c1)c1cccc(N)c1 [SLF, reference compound] | 2.9 °C |  | 177 nM | 0.4 °C |  |  | 
11 | CCC(C)(C)C(=O)C(=O)N1CCCC[C@H]1C(=O)O[C@H](CCc1ccc(OC)c(OC)c1)c1cccc(OCC(=O)O)c1 [SLFb, reference compound] | 2.8 °C |  | 761 nM | 6.6 °C | 59 µM (≈ 34.4 µg/mL) | 27 nM | tracer displacement (in words), FKBP35 ([5]; NanoBRET, 2 h incubation): markedly reduced probe displacement; IC50 [6]: 33700 nM; tracer displacement (in words), FKBP12 (nLuc-tagged FKBP12; NanoBRET, 2 h incubation): markedly reduced probe displacement
